Experimental data published in ChEMBL document CHEMBL1140860, “Synthesis and evaluation of dihydroartemisinin and dihydroartemisitene acetal dimers showing anticancer and antiprotozoal activity” (Bioorg Med Chem, 2009).

Experiments:
[1] = Selectivity index, ratio of TC50 for african green monkey (Cercopithecus aethiops) Vero cells to IC50 for chloroquine-sensitive Plasmodium falciparum D6; format: toxicity, cell-based
Plasmodium falciparum [2] = experiment: Antimalarial activity after 72 hrs against chloroquine-resistant Plasmodium falciparum W2 infected erythrocytes by LDH assay; format: functional, organism-based; details: W2, 72 h
[3] = Selectivity index, ratio of TC50 for african green monkey (Cercopithecus aethiops) Vero cells to IC50 for chloroquine-resistant Plasmodium falciparum W2; format: toxicity, cell-based
Plasmodium falciparum [4] = experiment: Antimalarial activity after 72 hrs against chloroquine-sensitive Plasmodium falciparum D6 infected in erythrocytes by LDH assay; format: functional, organism-based; details: D6, 72 h
[5] = Cytotoxicity against african green monkey Vero cells after 48 hrs by neutral red assay; format: cell-based; details: chlorocebus sabaeus, read-out: TC50
NCI-H226 = experiment: Growth inhibition of human NCI-H226 cells after 48 hrs by sulforhodamine B assay; format: functional; details: NCI-H226, 48 h
PC-3 = experiment: Growth inhibition of human PC3 cells after 48 hrs by sulforhodamine B assay; format: functional; details: PC-3, 48 h
CAKI-1 = experiment: Growth inhibition of human Caki1 cells after 48 hrs by sulforhodamine B assay; format: functional; details: CAKI-1, 48 h
[6] = Growth inhibition of human […] cells after 48 hrs by sulforhodamine B assay; format: functional
M14 = experiment: Growth inhibition of human M14 cells after 48 hrs by sulforhodamine B assay; format: functional; details: M14, 48 h
NCI/ADR-RES = experiment: Growth inhibition of human NCI/ADR-RES cells after 48 hrs by sulforhodamine B assay; format: functional
HT-29 = experiment: Growth inhibition of human HT-29 cells after 48 hrs by sulforhodamine B assay; format: functional; details: HT-29, 48 h
HOP-92 = experiment: Growth inhibition of human HOP92 cells after 48 hrs by sulforhodamine B assay; format: functional; details: HOP-92, 48 h
SNB-19 = experiment: Growth inhibition of human SNB19 cells after 48 hrs by sulforhodamine B assay; format: functional; details: SNB-19, 48 h
EKVX = experiment: Growth inhibition of human EKVX cells after 48 hrs by sulforhodamine B assay; format: functional
SR = experiment: Growth inhibition of human SR cells after 48 hrs by sulforhodamine B assay; format: functional
HOP-62 = experiment: Growth inhibition of human HOP62 cells after 48 hrs by sulforhodamine B assay; format: functional; details: HOP-62, 48 h
UACC-257 = experiment: Growth inhibition of human UACC257 cells after 48 hrs by sulforhodamine B assay; format: functional; details: UACC-257, 48 h
[7] = Growth inhibition of human Hs 578T cells after 48 hrs by sulforhodamine B assay; format: functional
OVCAR-5 = experiment: Growth inhibition of human OVCAR5 cells after 48 hrs by sulforhodamine B assay; format: functional; details: OVCAR-5, 48 h
UO-31 = experiment: Growth inhibition of human UO31 cells after 48 hrs by sulforhodamine B assay; format: functional; details: UO-31, 48 h
MDA-MB-231 = experiment: Growth inhibition of human MDA-MB-231 cells after 48 hrs by sulforhodamine B assay; format: functional; details: MDA-MB-231, 48 h
TK-10 = experiment: Growth inhibition of human TK10 cells after 48 hrs by sulforhodamine B assay; format: functional; details: TK-10, 48 h
OVCAR-4 = experiment: Growth inhibition of human OVCAR4 cells after 48 hrs by sulforhodamine B assay; format: functional; details: OVCAR-4, 48 h
A498 = experiment: Growth inhibition of human A498 cells after 48 hrs by sulforhodamine B assay; format: functional; details: A498, 48 h
SK-MEL-28 = experiment: Growth inhibition of human SK-MEL-28 cells after 48 hrs by sulforhodamine B assay; format: functional; details: SK-MEL-28, 48 h
RXF 393 = experiment: Growth inhibition of human RXF393 cells after 48 hrs by sulforhodamine B assay; format: functional; details: RXF 393, 48 h
HCC 2998 = experiment: Growth inhibition of human HCC2998 cells after 48 hrs by sulforhodamine B assay; format: functional; details: HCC 2998, 48 h
SNB-75 = experiment: Growth inhibition of human SNB75 cells after 48 hrs by sulforhodamine B assay; format: functional; details: SNB-75, 48 h
MOLT-4 = experiment: Growth inhibition of human MOLT4 cells after 48 hrs by sulforhodamine B assay; format: functional; details: MOLT-4, 48 h
786-0 = experiment: Growth inhibition of human 786-0 cells after 48 hrs by sulforhodamine B assay; format: functional; details: 786-0, 48 h
HCT-116 = experiment: Growth inhibition of human HCT116 cells after 48 hrs by sulforhodamine B assay; format: functional; details: HCT-116, 48 h
LOX IMVI = experiment: Growth inhibition of human LOXIMVI cells after 48 hrs by sulforhodamine B assay; format: functional
HL-60 = experiment: Growth inhibition of human HL-60(TB) cells after 48 hrs by sulforhodamine B assay; format: functional; details: HL-60, 48 h
HCT-15 = experiment: Growth inhibition of human HCT15 cells after 48 hrs by sulforhodamine B assay; format: functional; details: HCT-15, 48 h
ACHN = experiment: Growth inhibition of human ACHN cells after 48 hrs by sulforhodamine B assay; format: functional
CCRF-CEM = experiment: Growth inhibition of human CCRF-CEM cells after 48 hrs by sulforhodamine B assay; format: functional
MDA-MB-435 = experiment: Growth inhibition of human MDA-MB-435 cells after 48 hrs by sulforhodamine B assay; format: functional; details: MDA-MB-435, 48 h
Malme-3M = experiment: Growth inhibition of human MALME-3M cells after 48 hrs by sulforhodamine B assay; format: functional
T47D = experiment: Growth inhibition of human T47D cells after 48 hrs by sulforhodamine B assay; format: functional
MDA-N = experiment: Growth inhibition of human MDA-N cells after 48 hrs by sulforhodamine B assay; format: functional
UACC-62 = experiment: Growth inhibition of human UACC62 cells after 48 hrs by sulforhodamine B assay; format: functional; details: UACC-62, 48 h
OVCAR-3 = experiment: Growth inhibition of human OVCAR-3 cells after 48 hrs by sulforhodamine B assay; format: functional; details: OVCAR-3, 48 h
COLO 205 = experiment: Growth inhibition of human COLO205 cells after 48 hrs by sulforhodamine B assay; format: functional; details: COLO 205, 48 h
SF-268 = experiment: Growth inhibition of human SF268 cells after 48 hrs by sulforhodamine B assay; format: functional; details: SF-268, 48 h
NCI-H23 = experiment: Growth inhibition of human NCI-H23 cells after 48 hrs by sulforhodamine B assay; format: functional; details: NCI-H23, 48 h
SW-620 = experiment: Growth inhibition of human SW620 cells after 48 hrs by sulforhodamine B assay; format: functional; details: SW-620, 48 h
NCI-H460 = experiment: Growth inhibition of human NCI-H460 cells after 48 hrs by sulforhodamine B assay; format: functional; details: NCI-H460, 48 h
A549 = experiment: Growth inhibition of human A549 cells after 48 hrs by sulforhodamine B assay; format: functional; details: A549, 48 h
K562 = experiment: Growth inhibition of human K562 cells after 48 hrs by sulforhodamine B assay; format: functional; details: K562, 48 h
MCF7 = experiment: Growth inhibition of human MCF7 cells after 48 hrs by sulforhodamine B assay; format: functional; details: MCF7, 48 h
KM12 = experiment: Growth inhibition of human KM12 cells after 48 hrs by sulforhodamine B assay; format: functional; details: KM12, 48 h
NCI-H322M = experiment: Growth inhibition of human NCI-H322M cells after 48 hrs by sulforhodamine B assay; format: functional
SK-MEL-5 = experiment: Growth inhibition of human SK-MEL-5 cells after 48 hrs by sulforhodamine B assay; format: functional; details: SK-MEL-5, 48 h
SK-MEL-2 = experiment: Growth inhibition of human SK-MEL-2 cells after 48 hrs by sulforhodamine B assay; format: functional; details: SK-MEL-2, 48 h
NCI-H522 = experiment: Growth inhibition of human NCI-H522 cells after 48 hrs by sulforhodamine B assay; format: functional; details: NCI-H522, 48 h
IGROV-1 = experiment: Growth inhibition of human IGROV1 cells after 48 hrs by sulforhodamine B assay; format: functional; details: IGROV-1, 48 h
OVCAR-8 = experiment: Growth inhibition of human OVCAR8 cells after 48 hrs by sulforhodamine B assay; format: functional; details: OVCAR-8, 48 h
SN12C = experiment: Growth inhibition of human SN12C cells after 48 hrs by sulforhodamine B assay; format: functional
SK-OV-3 = experiment: Growth inhibition of human SKOV3 cells after 48 hrs by sulforhodamine B assay; format: functional; details: SK-OV-3, 48 h
U-251 = experiment: Growth inhibition of human U251 cells after 48 hrs by sulforhodamine B assay; format: functional; details: U-251, 48 h
BT-549 = experiment: Growth inhibition of human BT549 cells after 48 hrs by sulforhodamine B assay; format: functional; details: BT-549, 48 h

In the case of `C[C@H]1[C@H](O[C@H]2O[C@@H]3O[C@@]4(C)CC[C@H]5[C@H](C)CC[C@@H]([C@H]2C)[C@@]35OO4)O[C@@H]2O[C@@]3(C)CC[C@H]4[C@H](C)CC[C@@H]1[C@@]24OO3`, the selectivity ratio [1] is reported as > 37, the IC50 (Plasmodium falciparum [2]) is reported as 25400 nM and the selectivity ratio [3] is reported as > 34. For the same molecule, the IC50 (Plasmodium falciparum [4]) was 23600 nM and the CC50 at 48 h [5] was > 864000 nM.
In the case of `C[C@H]1[C@H](OCCCCO[C@H]2O[C@@H]3O[C@@]4(C)CC[C@H]5[C@H](C)CC[C@@H]([C@H]2C)[C@@]35OO4)O[C@@H]2O[C@@]3(C)CC[C@H]4[C@H](C)CC[C@@H]1[C@@]24OO3`, the GI50 (NCI-H226) is reported as 34 nM, the GI50 (PC-3) is reported as 11 nM and the GI50 (CAKI-1) is reported as 6560 nM. The GI50 [6] was < 5 nM, the GI50 (M14) was 148 nM and the GI50 (NCI/ADR-RES) was 214 nM. The GI50 (HT-29) was 15 nM, the GI50 (HOP-92) was 6400 nM and the GI50 (SNB-19) was 869 nM. The GI50 (EKVX) was 44 nM, the GI50 (SR) was < 5 nM and the GI50 (HOP-62) was 42000 nM. The GI50 (UACC-257) was 69 nM, the GI50 [7] was 133 nM and the GI50 (OVCAR-5) was 65 nM. For the same molecule, the GI50 (UO-31) was 22 nM, the GI50 (MDA-MB-231) was 5070 nM and the GI50 (TK-10) was 23 nM. The GI50 (OVCAR-4) was 148 nM, the GI50 (A498) was 5770 nM and the GI50 (SK-MEL-28) was 8820 nM. It also gave a selectivity ratio [1] of 43, an IC50 (Plasmodium falciparum [2]) of 14100 nM and a GI50 (RXF 393) of 9800 nM. The GI50 (HCC 2998) was 365 nM, the GI50 (SNB-75) was 8050 nM and the GI50 (MOLT-4) was 8 nM. It also gave a GI50 (786-0) of 107 nM, a GI50 (HCT-116) of 10 nM and a GI50 (LOX IMVI) of 8 nM. It also gave a GI50 (HL-60) of 12 nM, a GI50 (HCT-15) of 7 nM and a GI50 (ACHN) of 31 nM. For the same molecule, the GI50 (CCRF-CEM) was 15 nM, the GI50 (MDA-MB-435) was 18 nM and the GI50 (Malme-3M) was 353 nM. For the same molecule, the GI50 (T47D) was < 5 nM, the GI50 (MDA-N) was 58 nM and the GI50 (UACC-62) was 215 nM. The GI50 (OVCAR-3) was 203 nM, the GI50 (COLO 205) was 12 nM and the selectivity ratio [3] was > 54. The GI50 (SF-268) was 5620 nM, the GI50 (NCI-H23) was 20 nM and the GI50 (SW-620) was 16 nM. For the same molecule, the IC50 (Plasmodium falciparum [4]) was 17700 nM, the GI50 (NCI-H460) was 4230 nM and the GI50 (A549) was 35 nM. For the same molecule, the GI50 (K562) was 12 nM, the CC50 at 48 h [5] was > 764000 nM and the GI50 (MCF7) was 43 nM. It also gave a GI50 (KM12) of 12 nM, a GI50 (NCI-H322M) of 16000 nM and a GI50 (SK-MEL-5) of 115 nM. It also gave a GI50 (SK-MEL-2) of 318 nM, a GI50 (NCI-H522) of 16 nM and a GI50 (IGROV-1) of 381 nM. The GI50 (OVCAR-8) was 47 nM, the GI50 (SN12C) was 210 nM and the GI50 (SK-OV-3) was 7210 nM. For the same molecule, the GI50 (U-251) was 25 nM and the GI50 (BT-549) was 220 nM.
